Target: T1, hTAS1R1 D192A/rTAS1R3 (UniProt Q7RTX1+Q923K1, D192A)
T1 construct: UniProtKB number Q7RTX1–1); The cDNA coding region of rTAS1R3 was synthesized with optimized-codon usage for human expression; expressed in transfected cells; host or cells: HEK293T/17
T1 sequence (Q7RTX1 21-841 D192A): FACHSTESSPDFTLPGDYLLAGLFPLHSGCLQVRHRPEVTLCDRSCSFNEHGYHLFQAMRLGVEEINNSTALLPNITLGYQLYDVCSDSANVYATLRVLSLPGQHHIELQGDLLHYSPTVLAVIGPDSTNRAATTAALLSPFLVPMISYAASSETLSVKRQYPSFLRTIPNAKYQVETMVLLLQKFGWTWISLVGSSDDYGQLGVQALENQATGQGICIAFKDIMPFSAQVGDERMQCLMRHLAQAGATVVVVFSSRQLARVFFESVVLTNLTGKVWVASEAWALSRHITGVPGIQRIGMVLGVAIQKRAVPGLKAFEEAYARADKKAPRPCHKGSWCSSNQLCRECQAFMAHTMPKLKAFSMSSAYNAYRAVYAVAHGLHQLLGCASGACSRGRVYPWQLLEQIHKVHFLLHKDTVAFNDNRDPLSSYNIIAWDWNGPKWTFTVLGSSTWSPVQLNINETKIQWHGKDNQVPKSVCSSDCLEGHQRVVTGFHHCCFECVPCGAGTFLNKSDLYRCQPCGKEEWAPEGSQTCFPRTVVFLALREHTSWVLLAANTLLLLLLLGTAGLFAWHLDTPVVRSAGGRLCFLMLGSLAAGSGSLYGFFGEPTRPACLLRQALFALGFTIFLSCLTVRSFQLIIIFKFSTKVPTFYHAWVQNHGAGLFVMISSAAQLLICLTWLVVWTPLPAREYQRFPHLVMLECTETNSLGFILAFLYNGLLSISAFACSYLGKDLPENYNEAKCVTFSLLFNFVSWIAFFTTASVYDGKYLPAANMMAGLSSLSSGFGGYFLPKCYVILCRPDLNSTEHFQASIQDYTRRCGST
T1 sequence (Q923K1 21-858): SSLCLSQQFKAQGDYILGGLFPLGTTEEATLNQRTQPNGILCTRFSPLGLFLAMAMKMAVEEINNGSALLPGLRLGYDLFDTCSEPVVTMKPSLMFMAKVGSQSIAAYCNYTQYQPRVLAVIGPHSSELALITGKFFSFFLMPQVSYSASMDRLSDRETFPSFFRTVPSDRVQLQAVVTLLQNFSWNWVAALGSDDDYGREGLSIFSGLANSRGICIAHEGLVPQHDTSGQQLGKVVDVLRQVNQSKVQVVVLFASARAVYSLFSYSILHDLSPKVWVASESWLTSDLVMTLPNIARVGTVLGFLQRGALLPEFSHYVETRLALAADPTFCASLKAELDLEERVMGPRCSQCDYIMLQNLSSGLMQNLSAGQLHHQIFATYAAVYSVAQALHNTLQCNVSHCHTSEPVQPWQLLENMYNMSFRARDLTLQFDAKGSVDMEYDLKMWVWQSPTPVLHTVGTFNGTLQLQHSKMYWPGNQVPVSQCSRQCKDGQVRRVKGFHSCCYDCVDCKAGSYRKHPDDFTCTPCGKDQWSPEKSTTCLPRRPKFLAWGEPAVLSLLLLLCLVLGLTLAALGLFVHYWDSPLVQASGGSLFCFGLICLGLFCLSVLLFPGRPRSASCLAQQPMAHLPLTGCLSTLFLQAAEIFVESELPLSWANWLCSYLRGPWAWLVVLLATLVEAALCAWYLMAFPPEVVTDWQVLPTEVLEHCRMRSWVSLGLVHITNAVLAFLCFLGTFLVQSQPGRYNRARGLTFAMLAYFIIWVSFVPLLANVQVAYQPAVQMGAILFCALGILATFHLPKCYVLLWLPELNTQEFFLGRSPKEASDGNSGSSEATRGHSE
Assay: cell-based
Format: cell-based, human, rat
Text: Chimeric Gα proteins, such as Gα16Gust44, Gα16Gi3 or Gα15i2, are widely used in the functional expression of TAS1R receptors ([Backes et al., 2015]; [Suess et al., 2015]; [Toda et al., 2021], [Toda et al., 2013], [Toda et al., 2018]; [Zhang et al., 2008]). Chimeric Gα15i2 (([Toda et al., 2013]), Supplementary data) was generated by replacing the last five residues of the C-terminal tail of rat Gα15i2 (EINLL) (UniProt number G3V6N8; https://www.uniprot.org/uniprot/) with the counterpart sequence from human GNAI2 (DCGLF) (UniProt number P04899-1) and cloning into the pcDNA3.1/Hygro vector (Invitrogen, Thermo Fisher Scientific, Illkirch, France) between the HindIII and NotI restriction sites, resulting in the plasmid pcDNA3.1-Gα15i2. Chimeric Gα16Gust44 construct have already been reported ([Raliou et al., 2011]). Briefly, Gα16Gust44 was generated by replacing the C-terminal of Gα16 with the C-terminal 44 residues of gustducin. As previously described, hTAS1R1 was amplified from human fungiform papillae cDNA and cloned and inserted into pcDNA3 (Invitrogen), generating pcDNA3-TAS1R1-WT (wild-type) ([Raliou et al., 2011]). […] The cDNA coding region of rTAS1R3 was synthesized with optimized-codon usage for human expression (Genewiz) and was cloned and inserted into the mammalian pcDNA4/myc-HisA (Invitrogen) expression vector between the EcoRI and NotI restriction sites, resulting in the plasmid pcDNA4-rTAS1R3. […] The sequence integrity of all the plasmid constructs was verified via automated DNA sequencing (Genewiz).
The hTAS1R1 mutants were co-expressed with the rTAS1R3 subunit in HEK293 cells. […] As a control, the functionality of the mutated receptors was checked after stimulation with S807 (Fig. S8), which interacts with TAS1R1-TMD ([Zhang et al., 2008]).

## N[C@@H](CCC(=O)N[C@@H](CS)C(=O)NCC(=O)O)C(=O)O [GSH, γ-L-glutamyl-L-cysteinyl-glycine]
  EC50: 3.25 ± 0.061 mM
D192A
  effect of the added compound (1 mM) on the response to L-Glu: synergy was observed
  response to the agonist alone, vs WT: significantly increased the initial amplitude
D192A, GSH
  Max ∆F/F0: 0.65 ± 0.01
  R1 = mutant EC50/WT EC50: 1.3

Source: article PMC12615753, “Glutathione as a taste modulator: molecular mechanisms of interaction with umami and sweet taste receptors” (Food Chemistry: Molecular Sciences, 2025)
